The first experiment has as its system ABCA1 mRNA. Nature of the experiment: ABCA1 mRNA induction in THP-1 cells, QuantiGene branched DNA assay. The class given is cell-based. The conditions noted are these: 10 μM test compound, 18-20 hours. The gist of the method: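 THP-1 cells, grown to subconfluence, treated with compounds at 10 and 3 μM in DMEM/BSA for 18–20 h. Lysates hybridized with ABCA1-specific probe 16–18 h at 53 °C; QuantiGene branched DNA luminescence gives fold increase over DMSO.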
`COc1cccc2c1C1Nc3ccc(-c4nncn4C)cc3C(C)(C)C1CO2` (stereo not drawn) [Number 74, 1-methoxy-7,7-dimethyl-9-(4-methyl(1,2,4-triazol-3-yl))-7,12,12a,6a-tetrahydrochromano[4,3-b]quinoline]: the “ABCA1 Induction Fold Increase over DMSO Vehicle” value (shortened to “ABCA1 Induction Fold Increase”) was determined as 7.9 FOLD INCREASE.

Consider `COc1cccc2c1[C@H]1Nc3ccc(OC(F)(F)F)cc3C(C)(C)[C@H]1CO2` [Number 57, ((12aS,6aR)-1-methoxy-7,7-dimethyl(7,12,12a,6a-tetrahydrochromano[4,3-b]quinolin-9-yloxy))trifluoromethane], for which the “ABCA1 Induction Fold Increase” value was 6.1 FOLD INCREASE.

Take `COc1cccc2c1OC[C@H]1C2Nc2ccc(C(O)(C(F)(F)F)C(F)(F)F)cc2C1(C)C` (stereo partly drawn) [Number 34, 2-((6aR)-4-methoxy-7,7-dimethyl(7,12,12a,6a-tetrahydrochromano[4,3-b]quinolin-9-yl))-1,1,1,3,3,3-hexafluoropropan-2-ol]: the “ABCA1 Induction Fold Increase” value stood at 4.5 FOLD INCREASE.

As to `COc1cccc2c1OCC1C2Nc2ccc(CC(=O)O)cc2C1(C)C` (stereo not drawn) [Number 26, 2-(4-methoxy-7,7-dimethyl-7,12,12a,6a-tetrahydrochromano[4,3-b]quinolin-9-yl)acetic acid], the “ABCA1 Induction Fold Increase” value came out at 5.0 FOLD INCREASE.

`COc1cccc2c1[C@H]1Nc3ccccc3C(C)(C)[C@H]1CO2` [Number 53, (12aS,6aR)-1-methoxy-7,7-dimethyl-7,12,12a,6a-tetrahydrochromano[4,3-b]quinoline]: the “ABCA1 Induction Fold Increase” value came to 3.5 FOLD INCREASE.

For the compound `COc1cccc2c1OC[C@@H]1[C@H]2Nc2ccc(N3CCS(=O)(=O)CC3)cc2C1(C)C` [Number 20, 4-((6aS,12aR)-4-methoxy-7,7-dimethyl-7,12,12a,6a-tetrahydrochromano[4,3-b]quinolin-9-yl)-1,4-thiazaperhydroine-1,1-dione], the “ABCA1 Induction Fold Increase” value was 6.5 FOLD INCREASE.

Consider `CC1(C)c2cc(C(O)(C(F)(F)F)C(F)(F)F)ccc2N[C@@H]2c3cc(Br)ccc3OC[C@H]21` [Number 3, 2-((12aS,6aS)-2-bromo-7,7-dimethyl(7,12,12a,6a-tetrahydrochromano[4,3-b]quinolin-9-yl))-1,1,1,3,3,3-hexafluoropropan-2-ol], for which the “ABCA1 Induction Fold Increase” value is recorded as 3.0 FOLD INCREASE.

For `CCOc1cccc2c1OCC1C2Nc2ccc(C(O)(C(F)(F)F)C(F)(F)F)cc2C1(C)C` (stereo not drawn) [Number 22, 2-(4-ethoxy-7,7-dimethyl(7,12,12a,6a-tetrahydrochromano[4,3-b]quinolin-9-yl))-1,1,1,3,3,3-hexafluoropropan-2-ol], the “ABCA1 Induction Fold Increase” value is reported as 4.8 FOLD INCREASE.

Regarding `CC1(C)c2cc(C(O)(C(F)(F)F)C(F)(F)F)ccc2NC2c3cc(OC(F)(F)F)ccc3OCC21` (stereo not drawn) [Number 8, 2-[7,7-dimethyl-2-(trifluoromethoxy)(7,12,12a,6a-tetrahydrochromano[4,3-b]quinolin-9-yl)]-1,1,1,3,3,3-hexafluoropropan-2-ol], the “ABCA1 Induction Fold Increase” value was determined as 3.0 FOLD INCREASE.

On to `COc1cccc2c1OC[C@H]1[C@H]2Nc2ccc(CCC(=O)O)cc2C1(C)C` [Number 28, 3-((12aR,6aR)-4-methoxy-7,7-dimethyl-7,12,12a,6a-tetrahydrochromano[4,3-b]quinolin-9-yl)propanoic acid], for which the “ABCA1 Induction Fold Increase” value is listed as 1.9 FOLD INCREASE.

Regarding `CCS(=O)(=O)N1CCN(C(=O)c2cnn(-c3ccc4c(c3)C(C)(C)[C@H]3COc5cccc(OC)c5[C@H]3N4)c2C)CC1` [Number 140, 1-((6aR,12aS)-6a,7,12,12a-tetrahydro-1-methoxy-7,7-dimethyl-6H-chromeno[4,3-b]quinolin-9-yl)-5-methyl-1H-pyrazole-4-((4-ethanesulfonylpiperazin-1-yl)methanone)], the “ABCA1 Induction Fold Increase” value is 5.1 FOLD INCREASE.

On to `COc1cccc2c1C1Nc3ccc(C(O)(C(F)(F)F)C(F)(F)F)cc3C(C)(C)C1CO2` (stereo not drawn) [Number 24, 1,1,1,3,3,3-hexafluoro-2-(1-methoxy-7,7-dimethyl(7,12,12a,6a-tetrahydrochromano[4,3-b]quinolin-9-yl))propan-2-ol], for which the “ABCA1 Induction Fold Increase” value is recorded as 6.5 FOLD INCREASE.

In the case of `COc1cccc2c1OC[C@@H]1[C@H]2Nc2ccc(C(C)C)cc2C1(C)C` [Number 46, (6aS,12aR)-4-methoxy-7,7-dimethyl-9-(methylethyl)-7,12,12a,6a-tetrahydrochromano[4,3-b]quinoline], the “ABCA1 Induction Fold Increase” value is 4.2 FOLD INCREASE.

As for `COc1ccc(Br)c2c1OCC1C2Nc2ccc(C(C)=O)cc2C1(C)C` (stereo not drawn) [Number 80, 1-(1-bromo-4-methoxy-7,7-dimethyl-7,12,12a,6a-tetrahydrochromano[4,3-b]quinolin-9-yl)ethan-1-one], the “ABCA1 Induction Fold Increase” value is on record as 4.3 FOLD INCREASE.

Take `CC(C)=CCOC(=O)c1ccc2c(c1)C1Nc3ccc(C(O)(C(F)(F)F)C(F)(F)F)cc3C(C)(C)C1CO2` (stereo not drawn) [Number 13, 3-methylbut-2-enyl 7,7-dimethyl-9-[2,2,2-trifluoro-1-hydroxy-1-(trifluoromethyl)ethyl]-7,12,12a,6a-tetrahydrochromano[4,3-b]quinoline-2-carboxylate]: the “ABCA1 Induction Fold Increase” value is listed as 3.4 FOLD INCREASE.

On to `Cc1cccc2c1OCC1C2Nc2ccccc2C1(C)C` (stereo not drawn) [Number 31, 4,7,7-trimethyl-7,12,12a,6a-tetrahydrochromano[4,3-b]quinoline], for which the “ABCA1 Induction Fold Increase” value came to 5.5 FOLD INCREASE.

As to `CC(C)=CCOC(=O)c1ccc2c(c1)OCC1C2Nc2ccc(CB(O)O)cc2C1(C)C` (stereo not drawn) [Number 11, 3-methylbut-2-enyl 9-(dihydroxyboramethyl)-7,7-dimethyl-7,12,12a,6a-tetrahydrochromano[4,3-b]quinoline-3-carboxylate], the “ABCA1 Induction Fold Increase” value is given as 1.7 FOLD INCREASE.

As for `COc1cccc2c1[C@H]1Nc3ccc(-c4ccc(CO)cc4)cc3C(C)(C)[C@@H]1CO2` [Number 98, [4-((12aS,6aS)-1-methoxy-7,7-dimethyl-7,12,12a,6a-tetrahydrochromano[4,3-b]quinolin-9-yl)phenyl]methan-1-ol], the “ABCA1 Induction Fold Increase” value is given as 5.2 FOLD INCREASE.

As for `CCS(=O)(=O)N1CCN(C(=O)c2coc(-c3ccc4c(c3)C(C)(C)[C@H]3COc5cccc(OC)c5[C@H]3N4)n2)CC1` [Number 147, 2-((6aR,12aS)-1-methoxy-6a,7,12,12a-tetrahydro-7,7-dimethyl-6H-chromeno[4,3-b]quinolin-9-yl)oxazole-(4-(4-ethanesulfonylpiperazin-1-yl)methanone)], the “ABCA1 Induction Fold Increase” value amounted to 7 FOLD INCREASE.

As for `Cc1cc(Cl)cc2c1OCC1C2Nc2ccc(C(O)(C(F)(F)F)C(F)(F)F)cc2C1(C)C` (stereo not drawn) [Number 69, 2-(2-chloro-4,7,7-trimethyl(7,12,12a,6a-tetrahydrochromano[4,3-b]quinolin-9-yl))-1,1,1,3,3,3-hexafluoropropan-2-ol], the “ABCA1 Induction Fold Increase” value was 2.6 FOLD INCREASE.

For the compound `COc1cccc2c1OC[C@@H]1[C@@H]2Nc2ccc(C(=O)O)cc2C1(C)C` [Number 49, (12aS,6aS)-4-methoxy-7,7-dimethyl-7,12,12a,6a-tetrahydrochromano[4,3-b]quinoline-9-carboxylic acid], the “ABCA1 Induction Fold Increase” value is listed as 1.7 FOLD INCREASE.

Consider `COc1cccc2c1OC[C@@H]1[C@@H]2Nc2ccccc2C1(C)C` [Number 38, (12aS,6aS)-4-methoxy-7,7-dimethyl-7,12,12a,6a-tetrahydrochromano[4,3-b]quinoline], for which the “ABCA1 Induction Fold Increase” value is on record as 7.0 FOLD INCREASE.

On to `COc1cccc2c1OCC1C2Nc2ccc(C(N)=O)cc2C1(C)C` (stereo not drawn) [Number 23, 4-methoxy-7,7-dimethyl-7,12,12a,6a-tetrahydrochromano[4,3-b]quinoline-9-carboxamide], for which the “ABCA1 Induction Fold Increase” value turned out to be 6.1 FOLD INCREASE.

Still in this experiment, the particulars now being: Homo sapiens, 10 μM test compound, 18-20 hours, read-out: ABCA1 Induction Fold Increase over DMSO Vehicle.
On to `CN(C)C(=O)/C=C/c1ccc2c(c1)C1Nc3ccc(C(O)(C(F)(F)F)C(F)(F)F)cc3C(C)(C)C1CO2` (stereo not drawn) [Number 36, (2E)-3-{7,7-dimethyl-9-[2,2,2-trifluoro-1-hydroxy-1-(trifluoromethyl)ethyl](7,12,12a,6a-tetrahydrochromano[4,3-b]quinolin-2-yl)}-N,N-dimethylprop-2-enamide], for which the fold induction at 10 µM came to 5.3.

Regarding `CCCCN1c2ccccc2C(C)(C)[C@@H]2COc3cccc(OC)c3[C@H]21` [Number 175, (6aS,12aS)-12-butyl-6a,7,12,12a-tetrahydro-1-methoxy-7,7-dimethyl-6H-chromeno[4,3-b]quinoline], the fold induction at 10 µM was determined as 1.5.

As for `COC(=O)c1ccc2c(c1)C(C)(C)[C@H]1COc3c(OC)cc(-c4cn[nH]c4)cc3[C@H]1N2` [Number 161, (6aR,12aS)-methyl 6a,7,12,12a-tetrahydro-4-methoxy-7,7-dimethyl-2-(1H-pyrazol-4-yl)-6H-chromeno[4,3-b]quinoline-9-carboxylate], the fold induction at 10 µM is 8.1.

Take `COc1ccc2c(c1)C(C)(C)[C@@H]1COc3cccc(OC)c3[C@H]1N2C` [Number 176, (6aS,12aS)-6a,7,12,12a-tetrahydro-1,9-dimethoxy-7,7,12-trimethyl-6H-chromeno[4,3-b]quinoline]: the fold induction at 10 µM turned out to be 2.9.

As for `COc1cc(-c2cn[nH]c2)cc2c1OC[C@H]1[C@@H]2Nc2ccc(C#N)cc2C1(C)C` [Number 182, (6aR,12aS)-6a,7,12,12a-tetrahydro-4-methoxy-7,7-dimethyl-2-(1H-pyrazol-4-yl)-6H-chromeno[4,3-b]quinoline-9-carbonitrile], the fold induction at 10 µM came out at 4.6.

Turning to `COc1cccc2c1[C@H]1Nc3ccc(C(=O)NCCO)cc3C(C)(C)[C@H]1CO2` [Number 117, (6aR,12aS)-6a,7,12,12a-tetrahydro-N-(2-hydroxyethyl)-1-methoxy-7,7-dimethyl-6H-chromeno[4,3-b]quinoline-9-carboxamide], the fold induction at 10 µM is 8.6.

For the compound `COc1cccc2c1[C@@H]1[C@H](CO2)C(C)(C)c2ccccc2N1C1CCCCC1` [Number 166, (6aR,12aS)-12-cyclohexyl-6a,7,12,12a-tetrahydro-1-methoxy-7,7-dimethyl-6H-chromeno[4,3-b]quinoline], the fold induction at 10 µM amounted to 12.5.

These data come from patent US7432276B2, “ABCA1 elevating compounds” (CV Therapeutics, Inc., priority 2005, dated 2008).
